Results taken from ChEMBL document CHEMBL5653615 (J Biol Chem, 2013).

Columns and labels:
[1] = molecular target: Mitogen-activated protein kinase 9 (Homo sapiens) (UniProt P45984); experiment: Inhibition of human JNK2 at 18.6 nM by HotSpot assay relative to control
[2] = molecular target: Mitogen-activated protein kinase kinase kinase 11 (Homo sapiens) (UniProt Q16584); experiment: Inhibition of human MAP3K11 at 18.6 nM by HotSpot assay relative to control
[3] = molecular target: Leucine-rich repeat serine/threonine-protein kinase 2 (Homo sapiens) (UniProt Q5S007); experiment: Inhibition of human LRRK2 at 18.6 nM by HotSpot assay relative to control
Chain of Leucine-rich repeat serine/threonine-protein kinase 2 (Homo sapiens) (Q5S007 whole entry): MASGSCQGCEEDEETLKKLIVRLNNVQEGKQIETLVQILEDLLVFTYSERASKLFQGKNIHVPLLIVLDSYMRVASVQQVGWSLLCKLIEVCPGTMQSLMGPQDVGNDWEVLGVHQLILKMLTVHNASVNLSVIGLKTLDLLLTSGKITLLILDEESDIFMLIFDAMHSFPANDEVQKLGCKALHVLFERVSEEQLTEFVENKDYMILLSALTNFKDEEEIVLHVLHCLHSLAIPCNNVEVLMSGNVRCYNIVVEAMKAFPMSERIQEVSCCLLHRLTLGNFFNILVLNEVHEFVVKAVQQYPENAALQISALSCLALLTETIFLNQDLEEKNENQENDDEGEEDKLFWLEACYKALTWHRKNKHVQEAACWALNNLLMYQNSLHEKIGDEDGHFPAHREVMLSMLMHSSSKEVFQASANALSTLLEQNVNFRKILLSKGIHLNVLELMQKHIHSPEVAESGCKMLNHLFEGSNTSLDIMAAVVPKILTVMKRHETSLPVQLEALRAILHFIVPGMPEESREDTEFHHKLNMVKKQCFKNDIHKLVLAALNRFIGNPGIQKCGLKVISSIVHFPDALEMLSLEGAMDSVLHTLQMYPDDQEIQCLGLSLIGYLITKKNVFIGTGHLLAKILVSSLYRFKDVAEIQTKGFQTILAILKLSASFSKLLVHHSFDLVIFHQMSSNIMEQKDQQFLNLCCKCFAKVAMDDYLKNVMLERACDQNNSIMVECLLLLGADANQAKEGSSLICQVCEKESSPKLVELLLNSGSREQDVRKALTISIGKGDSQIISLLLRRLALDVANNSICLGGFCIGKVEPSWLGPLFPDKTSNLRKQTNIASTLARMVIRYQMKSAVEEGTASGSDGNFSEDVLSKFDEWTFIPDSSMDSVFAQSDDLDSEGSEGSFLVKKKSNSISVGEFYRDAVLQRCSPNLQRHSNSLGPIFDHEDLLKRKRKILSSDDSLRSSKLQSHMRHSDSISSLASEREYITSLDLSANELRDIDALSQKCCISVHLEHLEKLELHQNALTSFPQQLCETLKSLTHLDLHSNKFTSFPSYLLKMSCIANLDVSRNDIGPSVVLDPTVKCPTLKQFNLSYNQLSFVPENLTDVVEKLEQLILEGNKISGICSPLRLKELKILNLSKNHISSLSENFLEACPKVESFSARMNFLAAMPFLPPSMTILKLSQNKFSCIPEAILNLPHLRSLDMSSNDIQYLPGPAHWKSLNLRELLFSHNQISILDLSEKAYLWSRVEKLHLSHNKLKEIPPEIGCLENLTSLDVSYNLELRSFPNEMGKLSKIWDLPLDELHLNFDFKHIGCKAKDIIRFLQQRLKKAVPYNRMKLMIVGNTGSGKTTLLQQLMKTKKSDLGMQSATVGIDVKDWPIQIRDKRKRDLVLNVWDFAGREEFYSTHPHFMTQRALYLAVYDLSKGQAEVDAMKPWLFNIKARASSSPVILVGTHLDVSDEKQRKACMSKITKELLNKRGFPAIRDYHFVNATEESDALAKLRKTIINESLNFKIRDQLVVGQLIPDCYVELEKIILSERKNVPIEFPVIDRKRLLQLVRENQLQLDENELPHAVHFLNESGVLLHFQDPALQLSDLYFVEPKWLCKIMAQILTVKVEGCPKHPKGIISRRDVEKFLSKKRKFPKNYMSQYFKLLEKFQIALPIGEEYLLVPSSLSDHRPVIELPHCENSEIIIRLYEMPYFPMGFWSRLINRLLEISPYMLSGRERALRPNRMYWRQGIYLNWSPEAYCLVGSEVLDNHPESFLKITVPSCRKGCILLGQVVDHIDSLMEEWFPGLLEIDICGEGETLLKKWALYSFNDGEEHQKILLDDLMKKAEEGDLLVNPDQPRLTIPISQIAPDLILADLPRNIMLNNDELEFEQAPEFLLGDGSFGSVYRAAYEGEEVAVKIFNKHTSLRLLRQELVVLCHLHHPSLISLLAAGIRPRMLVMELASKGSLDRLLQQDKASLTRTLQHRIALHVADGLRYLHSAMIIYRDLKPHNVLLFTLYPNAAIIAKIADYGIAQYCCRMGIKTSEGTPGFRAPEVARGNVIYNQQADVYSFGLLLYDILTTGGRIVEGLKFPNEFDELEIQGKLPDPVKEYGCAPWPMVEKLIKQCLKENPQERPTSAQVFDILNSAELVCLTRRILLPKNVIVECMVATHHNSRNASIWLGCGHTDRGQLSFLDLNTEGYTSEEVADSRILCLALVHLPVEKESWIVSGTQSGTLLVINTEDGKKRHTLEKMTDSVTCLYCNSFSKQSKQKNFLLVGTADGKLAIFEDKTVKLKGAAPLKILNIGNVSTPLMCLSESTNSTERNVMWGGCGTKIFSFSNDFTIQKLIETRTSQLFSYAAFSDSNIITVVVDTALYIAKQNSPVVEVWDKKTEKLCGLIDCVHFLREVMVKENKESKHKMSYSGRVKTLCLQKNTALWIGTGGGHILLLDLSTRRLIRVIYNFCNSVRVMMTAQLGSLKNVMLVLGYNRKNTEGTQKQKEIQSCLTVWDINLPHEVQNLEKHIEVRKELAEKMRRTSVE

[4] = molecular target: Tyrosine-protein kinase JAK1 (Homo sapiens) (UniProt P23458); experiment: Inhibition of human JAK1 at 18.6 nM by HotSpot assay relative to control
[5] = molecular target: CDK6/cyclin D1 (Homo sapiens) (UniProt P24385+Q00534); experiment: Inhibition of human CDK6/cyclin D1 at 18.6 nM by HotSpot assay relative to control; assay type: protein-complex assay
[6] = molecular target: T1, Ephrin type-A receptor 3 (Homo sapiens) (UniProt P29320); experiment: Inhibition of human EPHA3 at 18.6 nM by HotSpot assay relative to control
T1 sequence (whole entry): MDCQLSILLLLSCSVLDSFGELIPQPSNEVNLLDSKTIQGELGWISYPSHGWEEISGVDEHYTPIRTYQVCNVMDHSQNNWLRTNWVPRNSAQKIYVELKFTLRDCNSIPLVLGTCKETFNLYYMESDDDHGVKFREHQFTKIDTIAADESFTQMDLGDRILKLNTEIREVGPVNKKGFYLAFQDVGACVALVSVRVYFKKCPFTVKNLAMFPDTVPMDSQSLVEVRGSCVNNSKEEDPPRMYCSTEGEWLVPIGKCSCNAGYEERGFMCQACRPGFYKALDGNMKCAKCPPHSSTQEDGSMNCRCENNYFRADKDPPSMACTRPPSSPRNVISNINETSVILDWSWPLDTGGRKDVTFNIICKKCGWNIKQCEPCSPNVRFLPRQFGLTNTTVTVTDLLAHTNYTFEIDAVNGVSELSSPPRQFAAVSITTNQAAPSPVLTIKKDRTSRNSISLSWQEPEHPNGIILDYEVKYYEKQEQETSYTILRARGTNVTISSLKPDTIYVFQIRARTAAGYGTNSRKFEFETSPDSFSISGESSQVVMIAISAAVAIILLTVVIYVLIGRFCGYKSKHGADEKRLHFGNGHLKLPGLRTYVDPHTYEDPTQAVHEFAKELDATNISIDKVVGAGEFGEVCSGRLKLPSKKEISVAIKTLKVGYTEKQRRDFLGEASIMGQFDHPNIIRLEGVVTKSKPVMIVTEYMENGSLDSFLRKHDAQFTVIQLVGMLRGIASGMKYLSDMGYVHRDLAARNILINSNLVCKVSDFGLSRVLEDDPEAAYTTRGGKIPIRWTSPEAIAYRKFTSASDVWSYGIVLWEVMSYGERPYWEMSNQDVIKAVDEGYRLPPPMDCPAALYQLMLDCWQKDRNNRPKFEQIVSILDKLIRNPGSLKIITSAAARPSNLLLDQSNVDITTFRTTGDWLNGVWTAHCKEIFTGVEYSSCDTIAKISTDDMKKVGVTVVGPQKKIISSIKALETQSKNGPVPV

[7] = molecular target: Serine/threonine-protein kinase 25 (Homo sapiens) (UniProt O00506); experiment: Inhibition of human YSK1 at 1.82 nM by HotSpot assay relative to control
Chain of Serine/threonine-protein kinase 25 (Homo sapiens) (O00506 whole entry, looked up): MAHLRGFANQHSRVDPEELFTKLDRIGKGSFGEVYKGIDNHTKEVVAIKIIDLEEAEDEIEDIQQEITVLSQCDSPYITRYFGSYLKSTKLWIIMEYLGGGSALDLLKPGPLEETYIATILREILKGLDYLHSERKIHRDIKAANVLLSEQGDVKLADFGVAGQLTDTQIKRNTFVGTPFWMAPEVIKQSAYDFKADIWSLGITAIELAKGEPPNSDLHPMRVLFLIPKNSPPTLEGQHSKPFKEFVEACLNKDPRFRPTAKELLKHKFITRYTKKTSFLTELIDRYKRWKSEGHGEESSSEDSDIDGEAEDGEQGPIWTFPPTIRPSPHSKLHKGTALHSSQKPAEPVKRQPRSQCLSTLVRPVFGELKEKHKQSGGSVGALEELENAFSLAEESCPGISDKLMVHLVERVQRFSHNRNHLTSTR

[8] = molecular target: T2, NUAK family SNF1-like kinase 1 (Homo sapiens) (UniProt O60285); experiment: Inhibition of human ARK5 at 1.82 nM by HotSpot assay relative to control
T2 sequence (whole entry): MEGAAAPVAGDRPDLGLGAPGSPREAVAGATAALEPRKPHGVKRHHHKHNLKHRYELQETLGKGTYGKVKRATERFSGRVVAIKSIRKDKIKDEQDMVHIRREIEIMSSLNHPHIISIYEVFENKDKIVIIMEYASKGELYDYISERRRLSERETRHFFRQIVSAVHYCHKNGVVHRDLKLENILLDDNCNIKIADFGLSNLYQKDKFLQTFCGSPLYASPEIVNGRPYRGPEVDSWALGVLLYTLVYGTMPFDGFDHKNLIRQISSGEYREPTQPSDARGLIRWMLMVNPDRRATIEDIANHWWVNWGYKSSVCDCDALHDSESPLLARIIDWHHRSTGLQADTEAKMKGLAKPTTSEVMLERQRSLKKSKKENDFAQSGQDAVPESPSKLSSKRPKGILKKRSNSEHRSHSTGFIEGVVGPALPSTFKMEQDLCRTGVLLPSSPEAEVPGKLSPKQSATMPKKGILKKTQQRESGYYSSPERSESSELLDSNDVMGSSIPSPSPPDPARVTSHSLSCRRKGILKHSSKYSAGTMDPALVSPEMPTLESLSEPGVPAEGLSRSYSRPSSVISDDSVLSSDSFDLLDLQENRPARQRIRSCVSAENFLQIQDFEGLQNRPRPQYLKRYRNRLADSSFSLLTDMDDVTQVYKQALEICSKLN

[9] = molecular target: Aurora kinase B (Homo sapiens) (UniProt Q96GD4); experiment: Inhibition of human Aurora B at 1.82 nM by HotSpot assay relative to control
Chain of Aurora kinase B (Homo sapiens) (Q96GD4 whole entry): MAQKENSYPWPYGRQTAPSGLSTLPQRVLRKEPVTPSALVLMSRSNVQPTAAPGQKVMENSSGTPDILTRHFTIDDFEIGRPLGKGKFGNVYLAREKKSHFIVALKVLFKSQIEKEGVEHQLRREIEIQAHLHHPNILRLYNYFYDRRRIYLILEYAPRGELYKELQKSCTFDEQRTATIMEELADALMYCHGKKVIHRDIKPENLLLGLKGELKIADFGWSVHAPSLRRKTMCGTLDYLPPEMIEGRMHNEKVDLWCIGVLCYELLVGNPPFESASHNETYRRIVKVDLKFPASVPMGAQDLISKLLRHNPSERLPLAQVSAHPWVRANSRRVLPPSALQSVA

[10] = molecular target: MAP kinase-activated protein kinase 3 (Homo sapiens) (UniProt Q16644); experiment: Inhibition of human MAPKAPK3 at 1.82 nM by HotSpot assay relative to control
Chain of MAP kinase-activated protein kinase 3 (Homo sapiens) (Q16644 whole entry, looked up): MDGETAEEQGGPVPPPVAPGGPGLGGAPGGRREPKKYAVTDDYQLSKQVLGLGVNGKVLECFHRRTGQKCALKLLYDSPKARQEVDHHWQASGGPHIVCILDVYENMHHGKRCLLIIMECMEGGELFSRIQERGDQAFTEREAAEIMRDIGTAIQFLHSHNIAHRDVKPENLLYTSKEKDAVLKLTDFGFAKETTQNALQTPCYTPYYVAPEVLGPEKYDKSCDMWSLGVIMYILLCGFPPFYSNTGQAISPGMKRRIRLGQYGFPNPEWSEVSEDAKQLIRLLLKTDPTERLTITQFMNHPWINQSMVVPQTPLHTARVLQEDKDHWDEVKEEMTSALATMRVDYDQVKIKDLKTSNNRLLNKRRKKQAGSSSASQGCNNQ

[11] = molecular target: Calcium/calmodulin-dependent protein kinase type II subunit beta (Homo sapiens) (UniProt Q13554); experiment: Inhibition of human CAMK2b at 1.82 nM by HotSpot assay relative to control
[12] = molecular target: T3, Tyrosine-protein kinase ZAP-70 (Homo sapiens) (UniProt P43403); experiment: Inhibition of human ZAP70 at 1.82 nM by HotSpot assay relative to control
T3 sequence (whole entry): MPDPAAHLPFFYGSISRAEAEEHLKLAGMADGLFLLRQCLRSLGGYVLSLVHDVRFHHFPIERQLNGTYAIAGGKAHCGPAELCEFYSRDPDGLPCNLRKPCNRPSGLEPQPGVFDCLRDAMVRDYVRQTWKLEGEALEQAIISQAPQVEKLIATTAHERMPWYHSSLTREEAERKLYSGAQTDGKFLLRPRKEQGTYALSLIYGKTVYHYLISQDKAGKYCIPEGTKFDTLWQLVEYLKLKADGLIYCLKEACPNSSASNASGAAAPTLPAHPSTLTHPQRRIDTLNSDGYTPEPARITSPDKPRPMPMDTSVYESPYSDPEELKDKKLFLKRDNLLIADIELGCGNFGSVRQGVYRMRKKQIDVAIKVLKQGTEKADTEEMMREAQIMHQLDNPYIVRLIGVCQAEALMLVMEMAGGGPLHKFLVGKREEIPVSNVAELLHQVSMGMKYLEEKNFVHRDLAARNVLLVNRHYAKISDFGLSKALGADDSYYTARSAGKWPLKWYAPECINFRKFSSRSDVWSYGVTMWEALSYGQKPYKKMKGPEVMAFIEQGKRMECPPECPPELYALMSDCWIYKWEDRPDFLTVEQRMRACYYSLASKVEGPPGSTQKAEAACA

Chain of Mitogen-activated protein kinase kinase kinase 11 (Homo sapiens) (Q16584 whole entry, looked up): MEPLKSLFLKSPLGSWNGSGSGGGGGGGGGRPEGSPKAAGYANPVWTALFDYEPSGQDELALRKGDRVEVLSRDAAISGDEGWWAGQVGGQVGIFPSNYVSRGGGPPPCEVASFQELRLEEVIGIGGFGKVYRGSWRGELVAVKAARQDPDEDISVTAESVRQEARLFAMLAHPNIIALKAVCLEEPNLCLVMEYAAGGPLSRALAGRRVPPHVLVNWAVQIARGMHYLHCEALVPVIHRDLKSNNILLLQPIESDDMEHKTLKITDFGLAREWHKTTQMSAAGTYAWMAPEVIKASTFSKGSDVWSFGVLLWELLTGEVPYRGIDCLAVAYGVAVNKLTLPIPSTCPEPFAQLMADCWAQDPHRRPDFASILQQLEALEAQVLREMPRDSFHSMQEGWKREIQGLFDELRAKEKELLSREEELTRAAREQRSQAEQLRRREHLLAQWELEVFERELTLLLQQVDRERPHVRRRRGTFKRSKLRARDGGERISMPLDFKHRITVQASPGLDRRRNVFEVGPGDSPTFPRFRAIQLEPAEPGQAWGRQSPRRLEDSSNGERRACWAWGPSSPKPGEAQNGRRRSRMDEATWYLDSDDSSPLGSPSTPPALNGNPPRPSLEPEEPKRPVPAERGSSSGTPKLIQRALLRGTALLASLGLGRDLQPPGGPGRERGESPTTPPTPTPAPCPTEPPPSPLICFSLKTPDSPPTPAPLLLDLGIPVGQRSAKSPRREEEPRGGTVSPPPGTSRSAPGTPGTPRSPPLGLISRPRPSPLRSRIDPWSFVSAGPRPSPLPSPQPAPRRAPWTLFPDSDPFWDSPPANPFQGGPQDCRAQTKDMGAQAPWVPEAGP
Chain of Mitogen-activated protein kinase 9 (Homo sapiens) (P45984 whole entry, looked up): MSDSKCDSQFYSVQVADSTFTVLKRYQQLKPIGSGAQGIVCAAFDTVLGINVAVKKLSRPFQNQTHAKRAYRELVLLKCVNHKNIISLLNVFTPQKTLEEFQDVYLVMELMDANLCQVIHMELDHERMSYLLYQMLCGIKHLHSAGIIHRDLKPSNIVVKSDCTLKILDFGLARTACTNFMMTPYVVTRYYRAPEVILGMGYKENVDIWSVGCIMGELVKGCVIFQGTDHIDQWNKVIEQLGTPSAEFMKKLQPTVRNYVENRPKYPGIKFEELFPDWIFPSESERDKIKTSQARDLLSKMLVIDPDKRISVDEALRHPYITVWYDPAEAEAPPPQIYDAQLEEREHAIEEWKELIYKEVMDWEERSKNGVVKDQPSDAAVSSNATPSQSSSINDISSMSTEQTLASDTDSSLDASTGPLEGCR

SMILES	inhibition [1] [%]	inhibition [2] [%]	inhibition [3] [%]	inhibition [4] [%]	inhibition [5] [%]	inhibition [6] [%]	inhibition [7] [%]	inhibition [8] [%]	inhibition [9] [%]	inhibition [10] [%]	inhibition [11] [%]	inhibition [12] [%]
C[C@]1(O)C[C@@H](c2nc(-c3ccc4ccc(-c5ccccc5)nc4c3)c3c(N)nccn32)C1	-2.37	0.31	-3.07	-9.75	0.62	2.95	–	–	–	–	–	–
C[C@@]1(C(=O)Nc2ccc(F)nc2)CCCN1c1nc(Nc2cc(C3CC3)n[nH]2)c2cccn2n1	–	–	–	–	–	–	5.25	1.78	-0.68	-1.61	4.93	-2.24
